In patent US20220251163A1 (Sinopep-Allsino Biopharmaceutical Co., Ltd., priority 2019, published 2022):

Legend:
[1] = Effect on random weight of ob/ob mice after single subcutaneous injection; format: in vivo; settings: 100 μg/kg single s.c., X ± s, n = 7
Experimental: The mice in each group received random blood glucose value measurement before (0 h) administration and 2, 4, 6, 10 and 24 h after administration, and then the time for measuring the random blood glucose was adjusted and prolonged to 34, 48, 58 or 72 h after administration according to the blood glucose condition of the mice in each group. Meanwhile, the random weight of the mice in each group before (0 h) administration and 24 h after administration was weighed, and then the random weight of the mice corresponding to the random blood glucose measurement condition 48 or 72 h after administration was weighed.

[2] = tested on: ob/ob mice; test: Blood glucose reducing experiment, single subcutaneous injection in ob/ob mice; format: in vivo; settings: 100 μg/kg single s.c.; for Blood glucose at different time after administration, 0 h: 0 h (before administration); for Blood glucose at different time after administration, 0 h / Blood glucose at different time after administration, 2 h / Blood glucose at different time after administration, 4 h / Blood glucose at different time after administration, 6 h / Blood glucose at different time after administration, 10 h / Blood glucose at different time after administration, 24 h / AUC0-24 h Glu / Blood glucose at different time after administration, 34 h: X ± s, n = 7; for AUC0-24 h Glu: blood glucose curve area within 24 h; for AUC0-24 h Glu Decrease rate: versus model control group;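 for all read-outs here: random blood glucose read at each time point, decrease rate given as percentage fall versus the model control group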
Experimental: The mice in each group received random blood glucose value measurement before (0 h) administration and 2, 4, 6, 10 and 24 h after administration, and then the time for measuring the random blood glucose was adjusted and prolonged to 34, 48, 58 or 72 h after administration according to the blood glucose condition of the mice in each group. Meanwhile, the random weight of the mice in each group before (0 h) administration and 24 h after administration was weighed, and then the random weight of the mice corresponding to the random blood glucose measurement condition 48 or 72 h after administration was weighed. The blood glucose decrease rate, the blood glucose curve area (AUC0-24 h Glu) within 24 h after administration and the decrease rate were calculated according to the following formula.
Blood glucose decrease rate=(blood glucose in the model control group−blood glucose in the administration group)/blood glucose in the model control group×100%
BG0, BG2, BG4, BG6, BG10 and BG24 represented the blood glucose values before administration (0 h) and 2, 4, 6, 10 and 24 h after administration respectively.
AUC0-24 h Glu(mmol/Lh·r) decrease rate=(model control group AUC0-24 h Glu−administration group AUC0-24 h Glu/model control group AUC0-24 h Glu×100%
Experiments were carried out twice, at an interval of 8-10 days.

Row | Compound | Changes of random body weight at different time after administration, 0 h [1] | Random body weight at different time after administration, 0 h [1] | Changes of random body weight at different time after administration, 24 h [1] | Random body weight at different time after administration, 24 h [1] | Blood glucose at different time after administration, 0 h [2] | Decrease rate of blood glucose at different time after administration, 2 h [2] | Blood glucose at different time after administration, 2 h [2] | Decrease rate of blood glucose at different time after administration, 4 h [2] | Blood glucose at different time after administration, 4 h [2] | Decrease rate of blood glucose at different time after administration, 6 h [2] | Blood glucose at different time after administration, 6 h [2] | Decrease rate of blood glucose at different time after administration, 10 h [2] | Blood glucose at different time after administration, 10 h [2] | Decrease rate of blood glucose at different time after administration, 24 h [2] | Blood glucose at different time after administration, 24 h [2] | AUC0-24 h Glu [2] | AUC0-24 h Glu Decrease rate [2] | Changes of random body weight at different time after administration, 48 h [1] | Random body weight at different time after administration, 48 h [1] | Decrease rate of blood glucose at different time after administration, 34 h [2] | also measured
1 | CC[C@H](C)[C@H](NC(=O)[C@H](CO)NC(=O)[C@H](Cc1ccc(O)cc1)NC(=O)[C@H](CC(=O)O)NC(=O)[C@H](CO)NC(=O)[C@@H](NC(=O)[C@H](Cc1ccccc1)NC(=O)[C@@H](NC(=O)CNC(=O)[C@H](CCC(=O)O)NC(=O)[C@H](C)NC(=O)[C@@H](N)Cc1ccc(O)cc1)[C@@H](C)O)[C@@H](C)CC)C(=O)N[C@@H](C)C(=O)N[C@@H](CCSC)C(=O)N[C@@H](CC(=O)O)C(=O)N[C@@H](CCCCN)C(=O)N[C@H](C(=O)N[C@@H](Cc1c[nH]cn1)C(=O)N[C@@H](CCC(N)=O)C(=O)N[C@@H](CCC(N)=O)C(=O)N[C@@H](CC(=O)O)C(=O)N[C@@H](Cc1ccccc1)C(=O)N[C@H](C(=O)N[C@@H](CC(N)=O)C(=O)N[C@@H](Cc1c[nH]c2ccccc12)C(=O)N[C@@H](CC(C)C)C(=O)N[C@@H](CC(C)C)C(=O)N[C@@H](C)C(=O)N[C@@H](CCC(N)=O)C(=O)N[C@@H](CCCCN)C(=O)NCC(=O)N[C@@H](CCCCN)C(=O)N[C@@H](CCCCN)C(=O)N[C@@H](CC(N)=O)C(=O)N[C@@H](CC(=O)O)C(=O)N[C@@H](Cc1c[nH]c2ccccc12)C(=O)N[C@@H](CCCCN)C(=O)N[C@@H](Cc1c[nH]cn1)C(=O)N[C@@H](CC(N)=O)C(=O)N[C@H](C(=O)N[C@H](C(=O)N[C@@H](CCC(N)=O)C(=O)O)[C@@H](C)O)[C@@H](C)CC)C(C)C)[C@@H](C)CC [GIP, Glucose-dependent inotropic peptide, reference compound] | 0.0 ± 0.0 g | 43.5 ± 0.8 g | 0.1 ± 0.1 g | 43.6 ± 0.8 g | 20.36 ± 0.74 mmol/L | 38.0% | 12.63 ± 1.70 mmol/L | 38.8% | 12.46 ± 1.66 mmol/L | 32.7% | 13.71 ± 0.86 mmol/L | 30.5% | 14.16 ± 1.24 mmol/L | 12.4% | 17.84 ± 0.87 mmol/L | 363.99 ± 14.21 mmol·h/L | 28.7% | – | – | – | –
2 | CC[C@H](C)[C@H](NC(=O)[C@H](Cc1ccccc1)NC(=O)[C@H](CCC(=O)O)NC(=O)[C@H](CCCCN)NC(=O)[C@H](C)NC(=O)[C@H](C)NC(=O)[C@H](CCC(N)=O)NC(=O)CNC(=O)[C@H](CCC(=O)O)NC(=O)[C@H](CC(C)C)NC(=O)[C@H](Cc1ccc(O)cc1)NC(=O)[C@H](CO)NC(=O)[C@H](CO)NC(=O)[C@@H](NC(=O)[C@H](CC(=O)O)NC(=O)[C@H](CO)NC(=O)[C@@H](NC(=O)[C@H](Cc1ccccc1)NC(=O)[C@@H](NC(=O)CNC(=O)[C@H](CCC(=O)O)NC(=O)[C@H](C)NC(=O)[C@@H](N)Cc1c[nH]cn1)[C@@H](C)O)[C@@H](C)O)C(C)C)C(=O)N[C@@H](C)C(=O)N[C@@H](Cc1c[nH]c2ccccc12)C(=O)N[C@@H](CC(C)C)C(=O)N[C@H](C(=O)N[C@@H](CCCCN)C(=O)NCC(=O)N[C@@H](CCCNC(=N)N)C(N)=O)C(C)C [GLP-1, glucagon-like peptide-1, reference compound] | 0.0 ± 0.0 g | 43.2 ± 0.7 g | -0.1 ± 0.1 g | 43.1 ± 0.7 g | 20.30 ± 1.05 mmol/L | 40.6% | 12.06 ± 1.36 mmol/L | 41.9% | 11.79 ± 0.84 mmol/L | 35.9% | 13.02 ± 0.86 mmol/L | 30.9% | 14.03 ± 2.41 mmol/L | 11.1% | 18.04 ± 0.71 mmol/L | 359.61 ± 18.59 mmol·h/L | 29.6% | – | – | – | –
3 | CC[C@H](C)[C@H](NC(=O)[C@H](CC(C)C)NC(=O)[C@H](Cc1c[nH]c2ccccc12)NC(=O)[C@H](CCC(N)=O)NC(=O)[C@@H](NC(=O)[C@H](Cc1ccccc1)NC(=O)[C@H](C)NC(=O)[C@H](CCCCNC(=O)COCCOCCNC(=O)COCCOCCNC(=O)CC[C@H](NC(=O)CCCCCCCCCCCCCCCCC(=O)O)C(=O)O)NC(=O)[C@H](CCC(N)=O)NC(=O)[C@H](C)NC(=O)[C@@H](NC(=O)[C@H](CCCCN)NC(=O)[C@H](CC(=O)O)NC(=O)[C@H](CC(C)C)NC(=O)C1(NC(=O)[C@@H](NC(=O)[C@H](CO)NC(=O)[C@H](Cc2ccc(O)cc2)NC(=O)[C@H](CC(=O)O)NC(=O)[C@H](CO)NC(=O)[C@@H](NC(=O)[C@H](Cc2ccccc2)NC(=O)[C@@H](NC(=O)CNC(=O)[C@H](CCC(=O)O)NC(=O)C(C)(C)NC(=O)[C@@H](N)Cc2ccc(O)cc2)[C@@H](C)O)[C@@H](C)O)[C@@H](C)CC)CCC1)[C@@H](C)CC)C(C)C)C(=O)N[C@@H](C)C(=O)NCC(=O)NCC(=O)N1CCC[C@H]1C(=O)N[C@@H](CO)C(=O)N[C@@H](CO)C(=O)NCC(=O)N[C@@H](C)C(=O)N1CCC[C@H]1C(=O)N1CCC[C@H]1C(=O)N1CCC[C@H]1C(=O)N[C@@H](CO)C(N)=O [ID NO: 8] | 0.0 ± 0.0 g | 43.8 ± 0.7 g | -1.1 ± 0.2 g | 42.7 ± 0.7 g | 20.36 ± 0.87 mmol/L | 48.1% | 10.56 ± 0.99 mmol/L | 50.9% | 9.99 ± 0.86 mmol/L | 51.7% | 9.83 ± 0.85 mmol/L | 53.1% | 9.54 ± 1.12 mmol/L | 41.3% | 11.95 ± 1.26 mmol/L | 260.46 ± 21.31 mmol·h/L | 49.0% | -0.6 ± 0.1 g | 43.2 ± 0.7 g | 29.6% | Blood glucose at different time after administration, 34 h [2]: 14.33 ± 1.43 mmol/L; Decrease rate of blood glucose at different time after administration, 48 h [2]: 15.7%
4 | Semaglutide [reference compound] | 0.0 ± 0.0 g | 43.7 ± 1.0 g | -2.9 ± 0.2 g | 40.7 ± 1.0 g | 20.71 ± 1.14 mmol/L | 56.0% | 9.12 ± 0.84 mmol/L | 56.7% | 8.96 ± 1.40 mmol/L | 59.8% | 8.32 ± 0.88 mmol/L | 60.0% | 8.29 ± 0.86 mmol/L | 59.0% | 8.49 ± 1.12 mmol/L | 215.87 ± 18.67 mmol·h/L | 57.7% | -1.9 ± 0.2 g | 41.7 ± 1.0 g | 56.0% | Blood glucose at different time after administration, 34 h [2]: 9.12 ± 0.83 mmol/L; Decrease rate of blood glucose at different time after administration, 48 h [2]: 13.9%
